Test results as given in patent EP1001769B1, “SOLUBLE PRODRUGS OF PACLITAXEL” (BAKER NORTON PHARMACEUTICALS, INC., priority 1997, dated 1998).
Structures can show the parent of a compound that is named as a salt.

How the values were obtained:
Assay type in all cases: physicochemical
[1] = Stability of paclitaxel-2'-MPA solution in water/polyethylene glycol, analysed by HPLC
Description: The onium salt paclitaxel-2'-MPA was prepared by the method of Nicolaou et al., Angew. Chim. Int. Engl., 33:1583-1587 ([…]). A 2.40 mg/ml solution of the paclitaxel-2'-MPA was prepared by dissolving the salt (10.2 mg) in a solution of water (3.024 ml) and polyethylene glycol (1.234 ml). Samples of this solution were frozen. The frozen samples were slowly warmed to room temperature and homogenized with CH3CN (50 µl). An aliquot (50 µl) was removed and diluted to a final volume of 200 µl with deionized H2O and analyzed via HPLC (20 µl injection).

[2] = as above; details: freshly prepared solution 0.53 mg/ml in CH3CN, HPLC trace
[3] = Extraction from water into CH2Cl2; details: about 1 mg in 1 ml water stirred with 1 ml CH2Cl2; residue of organic phase weighed
Description: Extraction: Three samples (1.2, 1.0 and 0.98 mg) were dissolved in water (1 ml) and vigorously stirred with CH2Cl2 (1 ml). The organic phase was transferred to a clean, tared vial and concentrated in vacuo. The residue was weighed and compared to the theoretical input to gauge the effectiveness of the extraction procedure. Average return for this extraction was about 44% of theoretical.

[4] = Solubility in deionized water; details: 0.97 and 0.80 mg in 0.5 ml deionized water, sonicated about 1 minute; 1.54 mg sample needed additional 0.1 ml; upper limit not attained
Description: Solubility: Deionized water (0.5 ml) was added to three samples of the 2'-MPM (1.54 mg, 0.97 mg and 0.80 mg) and the flask sonicated for approximately one (1) minute.

[5] = Aqueous stability of the prodrug in H2O and 0.2M NaCl
Description: Aqueous Stability: The stability of the prodrug in H2O and 0.2M NaCI was examined at both room temperature and under refrigerated conditions. Samples in H2O (0.54 mg in 2 ml) and NaCI (0.57 mg in 2 ml) at room temperature were examined at two minute time intervals (0 through 12 minutes), 2 hours and 24 hours. […] At 4°C the product concentration was unchanged at 24 and 48 hours but decreased to 90% after 72 hours. […] At 4°C the product concentration was unchanged at 24 hours, was 91% at 48 hours and was 88% at 72 hours.

[6] = freshly prepared solution 0.53 mg/ml in CH3CN, HPLC trace

For `CC(=O)O[C@H]1C(=O)[C@@]2(C)[C@H]([C@H](OC(=O)c3ccccc3)[C@]3(O)C[C@H](OC(=O)[C@H](Oc4cccc[n+]4C)[C@@H](NC(=O)c4ccccc4)c4ccccc4)C(C)=C1C3(C)C)[C@]1(OC(C)=O)CO[C@@H]1C[C@@H]2O` [2'-MPA, Paclitaxel 2'-Methylpyridinium Acetate], the “2'-MPA %” value ([1]; 4°C, 1 Hour) was 85%, the Paclita. % ([1]; 4°C, 1 Hour) was 15% and the “2'-MPA %” value ([1]; 4°C, 2 Weeks) was 79%. For the same compound, the Paclita. % ([1]; 4°C, 2 Weeks) was 9%, the Unkno. % ([1]; 4°C, 2 Weeks) was 10% and the “2'-MPA %” value ([1]; 4°C, 6 Hours) was 75%. The Paclita. % ([1]; 4°C, 6 Hours) was 11%, the Unkno. % ([1]; 4°C, 6 Hours) was 14% and the “2'-MPA %” value ([1]; 4°C, 18 Hours) was 73%. The Paclita. % ([1]; 4°C, 18 Hours) was 10%, the Unkno. % ([1]; 4°C, 18 Hours) was 17% and the “2'-MPA %” value ([1]; 4°C, 18 Hours, listed as MPA salt) was 73%. The “2'-MPA %” value ([1]; 4°C, 42 Hours) was 79%, the Paclita. % ([1]; 4°C, 42 Hours) was 9% and the Unkno. % ([1]; 4°C, 42 Hours) was 12%. The “2'-MPA %” value ([1]; 4°C, 66 Hours) was 73%, the Paclita. % ([1]; 4°C, 66 Hours) was 11% and the Unkno. % ([1]; 4°C, 66 Hours) was 16%. The “2'-MPA %” value ([1]; Room Temperature, 1 Hour) was 78%, the Paclita. % ([1]; Room Temperature, 1 Hour) was 14% and the Unkno. % ([1]; Room Temperature, 1 Hour) was 8%. The “2'-MPA %” value ([1]; Room Temperature, 6 Hours) was 78%, the Paclita. % ([1]; Room Temperature, 6 Hours) was 14% and the Unkno. % ([1]; Room Temperature, 6 Hours) was 8%. For the same compound, the “2'-MPA %” value ([1]; Room Temperature, 18 Hours) was 69%, the “2'-MPA %” value ([1]; Room Temperature, 42 Hours) was 73% and the Paclita. % ([1]; Room Temperature, 42 Hours) was 17%. The Unkno. % ([1]; Room Temperature, 42 Hours) was 10%, the “2'-MPA %” value ([1]; Room Temperature, 66 Hours) was 79% and the Paclita. % ([1]; Room Temperature, 66 Hours) was 13%. For the same compound, the Unkno. % ([1]; Room Temperature, 66 Hours) was 8%, the “2'-MPA %” value ([1]; Room Temperature, 90 Hours) was 73% and the Paclita. % ([1]; Room Temperature, 90 Hours) was 15%. The Unkno. % ([1]; Room Temperature, 90 Hours) was 12%, the “2'-MPA peak” value [1, 6] was 75% and the Unknown peak [1, 6] was 10%. It also gave a Paclitaxel peak [2] of 15%.
With `CC(=O)O[C@H]1C(=O)[C@@]2(C)[C@H]([C@H](OC(=O)c3ccccc3)[C@]3(O)C[C@H](OC(=O)[C@H](Oc4cccc[n+]4C)[C@@H](NC(=O)c4ccccc4)c4ccccc4)C(C)=C1C3(C)C)[C@]1(OC(C)=O)CO[C@@H]1C[C@@H]2O` [Paclitaxel 2'-MPM, Paclitaxel-2'-Methylpyridinium Mesylate] the “Average return for this extraction” value [3] was “about 44 % of theoretical”, the Solubility [4] was “Solution was attained” and the product concentration ([5]; H2O, 4°C, 24 hours) was “unchanged”. For the same compound, the product concentration ([5]; H2O, 4°C, 48 hours) was “unchanged”, the product concentration ([5]; H2O, 4°C, 72 hours) was 90% and the product concentration ([5]; H2O, room temperature, 2 hours) was “relatively unchanged”. The product concentration ([5]; H2O, room temperature, 24 hours) was 56%, the “stability in aqueous solution” value ([5]; aqueous solution, 4°C, 24 hours (summary of Example 2)) was “unchanged” and the “stability in aqueous solution, degraded to” value ([5]; aqueous solution, 4°C, 72 hours (summary of Example 2)) was 88-91%. For the same compound, the product concentration ([5]; saline solution (0.2M NaCl), 4°C, 24 hours) was “unchanged”, the product concentration ([5]; saline solution (0.2M NaCl), 4°C, 48 hours) was 91% and the product concentration ([5]; saline solution (0.2M NaCl), 4°C, 72 hours) was 88%. For the same compound, the “drop of product concentration” value ([5]; saline solution (0.2M NaCl), room temperature, 2 hours) was 1-2%, the product concentration ([5]; saline solution (0.2M NaCl), room temperature, 24 hours) was 70% and the product concentration ([5]; saline solution (0.2M NaCl), room temperature, first ten minutes) was “no apparent change”.
